Data reported in US20020137929A1, “1 - (3-heterocyclylphenyl) isothiourea, -isourea, -guanidine and -amidine herbicidal agents” (Intellectual Property Department, BASF Aktiengesellschaft, priority 1998, published 2002).

Experiments:
[1] = test system: CASOB (Sicklepod); test: Postemergence herbicidal evaluation; format: in vivo, Cassia obtusifolia
Summary of the method: (§1)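 Seedlings grown about two weeks were sprayed at 40 psi with compound dispersed in 50/50 acetone/water plus 0.5% TWEEN 20, at about 0.0156 to 0.500 kg/ha. Plants were kept in the greenhouse and scored 4–5 weeks later on a 0–9 visual scale against untreated controls.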

[2] = test system: CHEAL (Lambsquarters, Common); test: Postemergence herbicidal evaluation; format: in vivo, Chenopodium album
Summary of the method: as §1

[3] = test system: GALAP (Galium); test: Postemergence herbicidal evaluation; format: in vivo, Galium aparine
Summary of the method: as §1

[4] = test system: ORYSAT (Rice, Tebonnet); test: Postemergence herbicidal evaluation; format: in vivo, Oryza sativa, (L.) Tebonnet
Summary of the method: as §1

[5] = test system: ZEAMX (Corn, Field); test: Postemergence herbicidal evaluation; format: in vivo, Zea mays
Summary of the method: as §1

[6] = test system: AMBEL (Ragweed, Common); test: Preemergence herbicidal evaluation; format: in vivo, Ambrosia artemisifolia; details: rated 4-5 weeks after treatment
Summary of the method: (§2)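 Sown cups got a single aqueous acetone spray of test compound (roughly 0.0156–0.500 kg/ha) before seedlings emerged. Evaluation, 4–5 weeks on, used a 0–9 visual scale covering plant stand, vigor, size, malformation, chlorosis and general appearance compared with controls.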

[7] = test system: SETVI (Foxtail, Green); test: Preemergence herbicidal evaluation; format: in vivo, Setaria viridis; details: rated 4-5 weeks after treatment
Summary of the method: as §2

[8] = test system: GLXMAW (Soybean, Williams); test: Preemergence herbicidal evaluation; format: in vivo, Glycine max, (L.) Merr. cv Williams; details: rated 4-5 weeks after treatment
Summary of the method: as §2

[9] = test system: ORYSAT (Rice, Tebonnet); test: Preemergence herbicidal evaluation; format: in vivo, Oryza sativa, (L.) Tebonnet; details: rated 4-5 weeks after treatment
Summary of the method: as §2

[10] = test system: CYPSE (Flatsedge); test: Preemergence weed control under flooded paddy conditions; format: in vivo, Cyperus serotinus; details: rated 3-4 weeks after treatment
Summary of the method: (§3)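 Visual injury scored 0-9 against control three to four weeks post-treatment, greenhouse-grown. Application: acetone/water (50/50) solutions dosed directly into flood water (1.5-3 cm over silt loam, planted top 0.5 cm), roughly 0.0313 to 0.500 kg/ha active ingredient.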

[11] = test system: MOOVA (Monochoria); test: as above; format: in vivo, Monochoria vaginalis; details: rated 3-4 weeks after treatment
Summary of the method: as §3

[12] = test system: CYPIR (Rice Flatsedge); test: Postemergence weed control under flooded paddy conditions; format: in vivo, Cyperus iria; details: postemergence weeds, 3-4 weeks after treatment
Summary of the method: (§4)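 Injury ratings (0–9 scale covering stand, vigor, malformation, size, chlorosis and overall appearance versus control) were made three to four weeks after treatment. Test material, about 0.0313 to 0.500 kg/ha a.i. in 50/50 v/v aqueous/acetone, was added to flood water 1.5 to 3 cm deep over 3 to 5 cm weeds and 1.5 to 2.5 leaf rice.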

[13] = test system: CYPSE (Flatsedge); test: as above; format: in vivo, Cyperus serotinus; details: postemergence weeds, 3-4 weeks after treatment
Summary of the method: as §4

[14] = test system: SAGPY (Arrowhead (Pygmaea)); test: as above; format: in vivo, Sagittaria pygmaea; details: postemergence weeds, 3-4 weeks after treatment
Summary of the method: as §4

## C[C@@H](C(=O)O)N1C(=O)CS/C1=N/c1cc(-n2c(=O)cc(C(F)(F)F)n(C)c2=O)c(F)cc1Cl [Compound 51, 2-{{2-Chloro-5-[3,6-dihydro-3-methyl-2,6-dioxo-4-(trifluoromethyl)-1(2H)-pyrimidinyl]-4-fluoro-phenyl}imino}-α-methyl-4-oxo-3-thiazolidineacetic acid, L-]
[1]; Rate 0.0158 kg/ha
  Postemergence herbicidal rating CASOB: 2.0
[1]; Rate 0.0315 kg/ha
  Postemergence herbicidal rating CASOB: 2.0
[1]; Rate 0.0630 kg/ha
  Postemergence herbicidal rating CASOB: 7.0
[2]; Rate 0.0158 kg/ha
  Postemergence herbicidal rating CHEAL: 9.0
[2]; Rate 0.0315 kg/ha
  Postemergence herbicidal rating CHEAL: 9.0
[2]; Rate 0.0630 kg/ha
  Postemergence herbicidal rating CHEAL: 9.0
[3]; Rate 0.0158 kg/ha
  Postemergence herbicidal rating GALAP: 4.0
[3]; Rate 0.0315 kg/ha
  Postemergence herbicidal rating GALAP: 9.0
[3]; Rate 0.0630 kg/ha
  Postemergence herbicidal rating GALAP: 9.0
[4]; Rate 0.0158 kg/ha
  Postemergence herbicidal rating ORYSAT: 2.0
[4]; Rate 0.0315 kg/ha
  Postemergence herbicidal rating ORYSAT: 3.5
[4]; Rate 0.0630 kg/ha
  Postemergence herbicidal rating ORYSAT: 4.0
[5]; Rate 0.0158 kg/ha
  Postemergence herbicidal rating ZEAMX: 7.0
[5]; Rate 0.0315 kg/ha
  Postemergence herbicidal rating ZEAMX: 7.5
[5]; Rate 0.0630 kg/ha
  Postemergence herbicidal rating ZEAMX: 7.5
[6]; rate 0.0156 kg/ha
  Preemergence herbicidal rating AMBEL: 0.0
[6]; rate 0.0313 kg/ha
  Preemergence herbicidal rating AMBEL: 0.0
[6]; rate 0.0625 kg/ha
  Preemergence herbicidal rating AMBEL: 4.0
[6]; rate 0.1250 kg/ha
  Preemergence herbicidal rating AMBEL: 9.0
[6]; rate 0.2500 kg/ha
  Preemergence herbicidal rating AMBEL: 9.0
[7]; rate 0.0156 kg/ha
  Preemergence herbicidal rating SETVI: 1.0
[7]; rate 0.0313 kg/ha
  Preemergence herbicidal rating SETVI: 0.0
[7]; rate 0.0625 kg/ha
  Preemergence herbicidal rating SETVI: 3.0
[7]; rate 0.1250 kg/ha
  Preemergence herbicidal rating SETVI: 6.0
[7]; rate 0.2500 kg/ha
  Preemergence herbicidal rating SETVI: 9.0
[8]; rate 0.0156 kg/ha
  Preemergence herbicidal rating GLXMAW: 0.0
[8]; rate 0.0313 kg/ha
  Preemergence herbicidal rating GLXMAW: 0.0
[8]; rate 0.0625 kg/ha
  Preemergence herbicidal rating GLXMAW: 1.0
[8]; rate 0.1250 kg/ha
  Preemergence herbicidal rating GLXMAW: 1.0
[8]; rate 0.2500 kg/ha
  Preemergence herbicidal rating GLXMAW: 7.0
[9]; rate 0.0156 kg/ha
  Preemergence herbicidal rating ORYSAT: 0.0
[9]; rate 0.0313 kg/ha
  Preemergence herbicidal rating ORYSAT: 1.0
[9]; rate 0.0625 kg/ha
  Preemergence herbicidal rating ORYSAT: 1.0
[9]; rate 0.1250 kg/ha
  Preemergence herbicidal rating ORYSAT: 1.0
[9]; rate 0.2500 kg/ha
  Preemergence herbicidal rating ORYSAT: 7.0
[10]; 0.0625 kg/ha
  Herbicidal rating CYPSE: 0.0
[10]; 0.1250 kg/ha
  Herbicidal rating CYPSE: 0.0
[10]; 0.2500 kg/ha
  Herbicidal rating CYPSE: 0.0
[11]; 0.0625 kg/ha
  Herbicidal rating MOOVA: 3.0
[11]; 0.1250 kg/ha
  Herbicidal rating MOOVA: 4.0
[11]; 0.2500 kg/ha
  Herbicidal rating MOOVA: 4.0
[12]; rate 0.0625 kg/ha
  Herbicidal rating CYPIR: 2.0
[12]; rate 0.1250 kg/ha
  Herbicidal rating CYPIR: 3.0
[12]; rate 0.2500 kg/ha
  Herbicidal rating CYPIR: 6.0
[13]; rate 0.0625 kg/ha
  Herbicidal rating CYPSE: 0.0
[13]; rate 0.1250 kg/ha
  Herbicidal rating CYPSE: 0.0
[13]; rate 0.2500 kg/ha
  Herbicidal rating CYPSE: 0.0
[14]; rate 0.0625 kg/ha
  Herbicidal rating SAGPY: 0.0
[14]; rate 0.1250 kg/ha
  Herbicidal rating SAGPY: 0.0
[14]; rate 0.2500 kg/ha
  Herbicidal rating SAGPY: 0.0
